Columns and labels:
IL-8 = experiment: Synovial tissue assay (spontaneous production): IL-8; format: cell-based; settings: Homo sapiens, synovial tissue cells from rheumatoid arthritis patients, 16 h, read-out: IC50 of IL-8 inhibition
Text: The ability of compounds of the present invention to inhibit spontaneous production of cytokines from freshly isolated human synovial tissue cells was designed as in reference, Lancet, 29, 244-247, (1989) the disclosure of which is incorporated by reference for the teaching of the assay.
Synovial tissue was obtained from rheumatoid arthritis patients undergoing knee replacement surgery. […] Subsequently, the cells were washed 3 times with RPMI 1640 culture medium and resuspended in complete medium (RPMI 1640 culture medium supplemented with 5% FBS and 5% human serum-AB+(Sigma, USA) at a concentration of 1×10^6 cells/mL. The viability of synovial cells was determined by trypan blue dye exclusion and was uniformly ≧98%. For the experiment, 100 μL of cell suspension was added to the wells of a 96-well culture plate (Nunc, USA). Following cell plating, 100 μL of the culture medium and 1 μL of various concentrations of the test compound (test compound was dissolved in DMSO to obtain a stock solution of 20 mM. […] The IC50 values were calculated by a nonlinear regression method using the GraphPad software (Prism 3.03).

p38 MAPK = target: T1, p38 MAPK (Homo sapiens, UniProt Q16539); experiment: p38 MAPK assay in anisomycin stimulated Jurkat T-cells (Western blot); format: cell-based; settings: 3 μM, phospho-p38 Western blot
T1 construct: endogenous in cells; host or cells: Jurkat T-cells (ATCC TIB-152, clone E6-1)
T1 sequence (Q16539 whole entry): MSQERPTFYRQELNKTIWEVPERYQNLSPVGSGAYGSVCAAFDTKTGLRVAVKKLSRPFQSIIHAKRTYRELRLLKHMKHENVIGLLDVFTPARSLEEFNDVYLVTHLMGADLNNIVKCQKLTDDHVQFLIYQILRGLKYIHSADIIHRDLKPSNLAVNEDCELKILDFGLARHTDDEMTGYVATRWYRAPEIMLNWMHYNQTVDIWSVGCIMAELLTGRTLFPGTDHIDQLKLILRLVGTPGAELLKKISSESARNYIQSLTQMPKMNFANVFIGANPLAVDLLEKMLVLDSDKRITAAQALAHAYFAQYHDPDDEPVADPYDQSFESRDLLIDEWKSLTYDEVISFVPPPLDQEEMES
Procedure: The method for identifying inhibitors of p38 MAPK was designed as in reference, Journal of Lipid Research, 40, 1911-1919, (1999), the disclosure of which is incorporated by reference for the teaching of the assay.
Human Jurkat T-cells (ATCC number: TIB-152, clone E6-1, USA) were cultured in culture medium (RPMI 1640 culture medium supplemented with 10% FBS, 100 U/mL penicillin and 100 μg/mL streptomycin) at 37° C., 5% CO2. Culture medium was changed every 2-3 days and always a day prior to the experiment. On the day of the experiment, Jurkat cells were pre-treated with vehicle or test compound at 3 μM, 10 times the IC50 value for IL-6 inhibition in human monocyte assay, for 1 h at 37° C. Subsequently, the cells were stimulated with anisomycin (10 μg/mL; Sigma, USA) for 30 min SB 203580 (1 PM; Sigma, USA) was used as a standard. The sample preparation of the test compound, anisomycin and SB 203580 is as follows: a stock solution (20 mM) of the test compound was prepared in DMSO. […]
Following the stimulation, cells were harvested, rapidly washed with ice-cold PBS and lysed with cold Cell Lytic buffer (Sigma, USA) supplemented with complete protease inhibitor cocktail (Roche, USA) and sodium orthovanadate (Sigma, USA). […] Aliquots of the resulting extracts were analyzed for their protein content using the Coomassie Plus Protein Assay Reagent (Pierce, USA) as per manufacturer's instructions. […]

CEBPα = experiment: Gene expression profile using RTQ-PCR: CEBPα; format: cell-based, human; settings: 3 μM
Procedure: The effect of the compound of example 7 was measured in stimulated untreated cells from the monocytic cell line (THP-1), human monocytes and synovial cells from rheumatoid arthritis patient. The effect of the compound in the THP-1 cell line was measured in terms of gene expression and was expressed as fold changes as compared to the cell stimulated control with no drug treatment.
THP-1 cells, human monocytes and synovial cells were treated with compound of example 7 or vehicle (0.5% DMSO). Total RNA isolation using a commercial RNA extraction kit (Qiagen Corporation, Germany) The first-strand cDNA was synthesized from total RNA using first strand cDNA synthesis kit from Invitrogen Corporation (California, USA). This was followed by real time quantitative polymerase chain reaction (RTQ PCR) using gene specific primers and standard thermal program of initial denaturation at 95° C. for 5 min and cycles of 95° C. for 10 seconds, followed by 60° C. for 30 seconds (Realplex PCR machine from Eppendorf, Germany). Quantitative measurement of products made during PCR cycles was normalized against a housekeeping gene (Actin) and was used to measure the gene expression as fold changes as compared to respective control.

With C/C=C/C(O)C(C)/C=C/C(=N\O)C(C)C(O)C(C)C1OC(=O)/C(OC)=C/C(C)=C/C(C)C(O)C(CC)C(O)C(C)C/C(C)=C/C=C/C1OC (centres unmarked) [Compound of example 7, (3Z,5E,13E,15E)-18-((5Z,6E,10E)-3,9-Dihydroxy-5-(hydroxymino)-4,8-dimethyldodeca-6,10-dien-2-yl)-9-ethyl-8,10-dihydroxy-3,17-dimethoxy-5,7,11,13-tetramethyl oxacyclooctadeca-3,5,13,15-tetraen-2-one] the IC50 (IL-8) was 1.3 µM, the “inhibition of p38 MAP kinase” value (p38 MAPK) was “did not inhibit” and the CEBPα gene expression (CEBPα; Human monocytes, 3 h, ± SE, N = 3) was −3.9 + 0.4 log fold change. The CEBPα gene expression (CEBPα; Synovial cells, 12 h, N = 1) was −2.4 log fold change and the CEBPα gene expression (CEBPα; THP-1 cells, 12 h, ± SE, N = 3) was −2.1 + 2.2 log fold change.

— patent publication US20120225889A1, “USE OF MACROCYCLIC LACTONE DERIVATIVES FOR THE TREATMENT OF INFLAMMATORY DISORDERS” (PIRAMAL LIFE SCIENCES LIMITED, priority 2010, published 2012)
